Test [1] addresses T1, recombinant human FLAP protein (Homo sapiens, UniProt P20292).
T1 construct: made in house; host or cells: Sf9 insect cells (100,000×g membrane pellet used)
T1 sequence (P20292 1-161): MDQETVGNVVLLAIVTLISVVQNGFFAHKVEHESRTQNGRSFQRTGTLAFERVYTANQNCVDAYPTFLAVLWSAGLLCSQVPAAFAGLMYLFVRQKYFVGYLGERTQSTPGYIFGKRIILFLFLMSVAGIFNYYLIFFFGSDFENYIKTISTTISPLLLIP
The test is described as follows: FLAP binding assay (SPA, displacement of [125I]L-691,831). The procedure: Assessment of Biological Properties 1. Binding Assay
Compounds are assessed for the ability to bind to FLAP in a binding assay that measures compound-specific displacement of an iodinated (^125I) FLAP inhibitor via a Scintillation Proximity Assay format (adapted from S. Charleson et al., Mol. Pharmacol., 1992, 41, 873-879).
Cell pellets produced from sf9 insect cells expressing recombinant human FLAP protein are resuspended in buffer A [15 mM Tris-HCl (pH 7.5), 2 mM MgCl2, 0.3 mM EDTA, 1 mM PMSF]. The cells are lysed with a Dounce homogenizer and the material is centrifuged at 10,000×g for 10 minutes. The supernatant is then collected and centrifuged at 100,000×g for 60 minutes. To prepare membrane protein for an assay, an aliquot of the 100,000×g pellet is resuspended in 1 ml of buffer A, Dounce homogenized, and finally subjected to polytron mixing (30 seconds). Membrane protein (25 μl, 5 μg) is mixed with WGA SPA beads (Amersham) and stirred for 1 h. […] (final concentrations: beads, 200 μg/well; protein, 5 μg/well; [^125I] probe, 0 08 nM/well (17 nCi/well). The plates are shaken for 2 h before reading on a Microbeta plate reader. Non-specific binding is determined by the addition of 10 μM cold L-691,831 compound.
Background: Loss of bound radioactivity is the signal in a displacement assay; it reports binding, not function.

Test [2] concerns synthesis of LTB4 in human whole blood. Description: Human whole blood assay (inhibition of LTB4 synthesis, calcimycin stimulated). Format: cell-based. The note with it: heparinized human whole blood, calcimycin 20 μM, plasma LTB4. On the procedure: Compounds are additionally tested in a human whole blood assay to determine their ability to inhibit the synthesis of LTB4 in a cellular system. Compounds are combined with heparinized human whole blood and incubated for 15 minutes at 37° C. Calcimycin (20 μM final, prepared in phosphate-buffered saline, pH 7.4) is then added and the mixture is incubated for another 30 minutes at 37° C. The samples are centrifuged for 5 min at low speed (1500×g) and the plasma layer is removed. Plasma LTB4 concentrations are then measured using an antibody-based homogenous time-resolved fluorescence method (CisBio, Bedford, Mass.).

Where [3] appears, read: membranes of sf9 cells expressing recombinant human FLAP, [125I]L-691,831 probe, read-out: FLAP binding IC50.

SMILES strings stand for the structures. Where two headings read alike, the source gives them in different places.

The results in this text go back to patent US8658661B2, “Oxadiazole inhibitors of leukotriene production” (Boehringer Ingelheim International GmbH, priority 2010, dated 2014).

In general, IC50 refers to the concentration that gives 50% inhibition. Take `CC(C)[C@](C)(c1ccc(-c2cnc(N)nc2)cc1)c1noc(-c2cnn(C)c2)n1` (single isomer, unassigned) [Example 46]: the values for the IC50 in test [1] and in test [2] were 1.6 nM and 33 nM, respectively.
With `CC(C)[C@@](C)(c1ccc(-c2cnc(N)nc2)cc1)c1noc(-c2cnn(C)c2)n1` (single isomer, unassigned) [Example 47], the IC50 in test [1] was 7.7 nM; in test [2] it was 360 nM.
`CC(C)(CO)Nc1cnc(-c2nc([C@@](C)(c3ccc(-c4cnc(N)nc4)cc3)C3CC3)no2)cn1` (single isomer, unassigned) [Example 56]: the half-maximal inhibitory concentration (IC50) in test [1] (setting [3]) stood at 2.4 nM; in test [2], 79 nM.
Consider `CC(C)(CO)Nc1cnc(-c2nc([C@](C)(c3ccc(-c4cnc(N)nc4)cc3)C3CC3)no2)cn1` (single isomer, unassigned) [Example 57], for which the IC50 in test [1] (setting [3]) amounted to 6.8 nM; in test [2], 150 nM.
Regarding `CN(C)C(=O)Cn1cc(-c2nc([C@@](C)(c3ccc(-c4cnc(N)nc4)cc3)C3CC3)no2)cn1` (single isomer, unassigned) [Example 115], the IC50 amounted to 1.9 nM in test [1] (setting [3]) and 58 nM in test [2].
With `CN(C)C(=O)Cn1cc(-c2nc([C@](C)(c3ccc(-c4cnc(N)nc4)cc3)C3CC3)no2)cn1` (single isomer, unassigned) [Example 116], the half-inhibitory concentration (IC50) was 150 nM in test [1] (setting [3]) and 2000 nM in test [2].
For `CC(C)[C@@](C)(c1ccc(-c2cnc(N)nc2)cc1)c1noc(N2CCC(O)CC2)n1` (single isomer, unassigned) [Example 224], in test [2], the IC50 amounted to 760 nM.
Turning to `COc1cncc(-c2ccc(C(C)(c3noc(-c4cnccn4)n3)C(C)C)cc2)c1` (stereo not drawn) [Example 1, 2-(3-{2-[4-(5-methoxypyridin-3-yl)phenyl]-3-methylbutan-2-yl}-1,2,4-oxadiazol-5-yl)pyrazine], in test [1] (setting [3]), the half-inhibitory concentration (IC50) was 57 nM.
Take `CC(C)C(C)(c1ccc(-c2cnc(N)nc2)cc1)c1noc(-c2ccccc2)n1` (stereo not drawn) [Example 2, 5-{4-[3-methyl-2-(5-phenyl-1,2,4-oxadiazol-3-yl)butan-2-yl]phenyl}pyrimidin-2-amine]: the half-maximal inhibitory concentration (IC50) in test [1] (setting [3]) turned out to be 5.1 nM; in test [2], 680 nM.
Turning to `CC(C)C(C)(c1ccc(-c2cnc(N)nc2)cc1)c1noc(-c2cccnc2)n1` (stereo not drawn) [Example 3, 5-(4-{3-methyl-2-[5-(pyridin-3-yl)-1,2,4-oxadiazol-3-yl]butan-2-yl}phenyl)pyrimidin-2-amine], the figures for the half-inhibitory concentration (IC50) in test [1] (setting [3]) and in test [2] were 1.7 nM and 94 nM, respectively.
As to `Cc1ccc(-c2nc(C(C)(c3ccc(-c4cnc(N)nc4)cc3)C(C)C)no2)cn1` (stereo not drawn) [Example 4, 5-(4-{3-methyl-2-[5-(6-methylpyridin-3-yl)-1,2,4-oxadiazol-3-yl]butan-2-yl}phenyl)pyrimidin-2-amine], the IC50 came out at 1.6 nM in test [1] (setting [3]) and 310 nM in test [2].
Turning to `Cc1ncccc1-c1nc(C(C)(c2ccc(-c3cnc(N)nc3)cc2)C(C)C)no1` (stereo not drawn) [Example 5, 5-(4-{3-methyl-2-[5-(2-methylpyridin-3-yl)-1,2,4-oxadiazol-3-yl]butan-2-yl}phenyl)pyrimidin-2-amine], the IC50 turned out to be 1.6 nM in test [1] (setting [3]) and 150 nM in test [2].
In the case of `CC(C)C(C)(c1ccc(-c2cnc(N)c(CO)c2)cc1)c1noc(-c2cccnc2)n1` (stereo not drawn) [Example 6, [2-amino-5-(4-{3-methyl-2-[5-(pyridin-3-yl)-1,2,4-oxadiazol-3-yl]butan-2-yl}phenyl)pyridin-3-yl]methanol], the IC50 in test [1] (setting [3]) came to 1.1 nM; in test [2], 70 nM.
Consider `CC(C)C(C)(c1ccc(-c2cnc(N)nc2)cc1)c1noc(-c2ccc(Cl)nc2)n1` (stereo not drawn) [Example 7, 5-(4-{2-[5-(6-chloropyridin-3-yl)-1,2,4-oxadiazol-3-yl]-3-methylbutan-2-yl}phenyl)pyrimidin-2-amine], for which the figures for the IC50 in test [1] (setting [3]) and in test [2] were 3.1 nM and 560 nM, respectively.
Regarding `COc1ccc(-c2nc(C(C)(c3ccc(-c4cnc(N)nc4)cc3)C(C)C)no2)cn1` (stereo not drawn) [Example 8, 5-(4-{2-[5-(6-methoxypyridin-3-yl)-1,2,4-oxadiazol-3-yl]-3-methylbutan-2-yl}phenyl)pyrimidin-2-amine], the half-inhibitory concentration (IC50) in test [1] (setting [3]) turned out to be 3.8 nM; in test [2] it was 530 nM.
As for `CC(C)C(C)(c1ccc(-c2cnc(N)nc2)cc1)c1noc(-c2ccc(=O)[nH]c2)n1` (stereo not drawn) [Example 9, 5-(3-{2-[4-(2-aminopyrimidin-5-yl)phenyl]-3-methylbutan-2-yl}-1,2,4-oxadiazol-5-yl)pyridin-2(1H)-one], the IC50 in test [1] (setting [3]) worked out at 2.9 nM; in test [2], 210 nM.
On to `COc1ncccc1-c1nc(C(C)(c2ccc(-c3cnc(N)nc3)cc2)C(C)C)no1` (stereo not drawn) [Example 10, 5-(4-{2-[5-(2-methoxypyridin-3-yl)-1,2,4-oxadiazol-3-yl]-3-methylbutan-2-yl}phenyl)pyrimidin-2-amine], for which, in test [1] (setting [3]), the IC50 amounted to 4.3 nM.
As to `COc1ccncc1-c1nc(C(C)(c2ccc(-c3cnc(N)nc3)cc2)C(C)C)no1` (stereo not drawn) [Example 11, 5-(4-{2-[5-(4-methoxypyridin-3-yl)-1,2,4-oxadiazol-3-yl]-3-methylbutan-2-yl}phenyl)pyrimidin-2-amine], the concentration for half-maximal inhibition (IC50) in test [1] (setting [3]) stood at 1.9 nM; in test [2], 89 nM.
Consider `CC(C)C(C)(c1ccc(-c2cnc(N)nc2)cc1)c1noc(-c2ccc[nH]c2=O)n1` (stereo not drawn) [Example 12, 3-(3-{2-[4-(2-aminopyrimidin-5-yl)phenyl]-3-methylbutan-2-yl}-1,2,4-oxadiazol-5-yl)pyridin-2(1H)-one], for which the half-inhibitory concentration (IC50) in test [1] (setting [3]) worked out at 3.3 nM; in test [2] it was 290 nM.
Consider `Cc1csc(-c2nc(C(C)(c3ccc(-c4cnc(N)nc4)cc3)C(C)C)no2)n1` (stereo not drawn) [Example 131, 5-(4-{3-methyl-2-[5-(4-methyl-1,3-thiazol-2-yl)-1,2,4-oxadiazol-3-yl]butan-2-yl}phenyl)pyrimidin-2-amine], for which the IC50 in test [1] (setting [3]) is 8.7 nM.
`CC(C)C(C)(c1ccc(-c2cnc(N)nc2)cc1)c1noc(-c2nccs2)n1` (stereo not drawn) [Example 139, 5-(4-{3-methyl-2-[5-(1,3-thiazol-2-yl)-1,2,4-oxadiazol-3-yl]butan-2-yl}phenyl)pyrimidin-2-amine]: in test [1] (setting [3]), the IC50 stood at 4.4 nM.
On to `CC(C)C(C)(c1ccc(-c2cnc(N)nc2)cc1)c1noc(-c2ccccc2S(C)(=O)=O)n1` (stereo not drawn) [Example 149, 5-[4-(3-methyl-2-{5-[2-(methylsulfonyl)phenyl]-1,2,4-oxadiazol-3-yl}butan-2-yl)phenyl]pyrimidin-2-amine], for which the IC50 in test [1] (setting [3]) came out at 58 nM.
Regarding `CC(C)C(C)(c1ccc(-c2cnc(N)nc2)cc1)c1noc(-c2cnc(=O)[nH]c2)n1` (stereo not drawn) [Example 154, 5-(3-{2-[4-(2-aminopyrimidin-5-yl)phenyl]-3-methylbutan-2-yl}-1,2,4-oxadiazol-5-yl)pyrimidin-2(1H)-one], the IC50 in test [1] (setting [3]) worked out at 3.3 nM.
Turning to `CC(C)C(C)(c1ccc(-c2cnc(N)nc2)cc1)c1noc(C2CC2)n1` (stereo not drawn) [Example 156, 5-{4-[2-(5-cyclopropyl-1,2,4-oxadiazol-3-yl)-3-methylbutan-2-yl]phenyl}pyrimidin-2-amine], the IC50 in test [1] (setting [3]) amounted to 15 nM.
Regarding `CC(c1ccc(-c2cnc(N)nc2)cc1)(c1noc(N2CCC(O)CC2)n1)C1CC1` (stereo not drawn) [Example 205, 1-(3-{1-[4-(2-Amino-pyrimidin-5-yl)-phenyl]-1-cyclopropyl-ethyl}-[1,2,4]oxadiazol-5-yl)-piperidin-4-ol], the IC50 in test [2] amounted to 68 nM.
Same read-out and setting: in the case of `CC(C)C(C)(c1ccc(-c2cnc(N)nc2)cc1)c1noc(N2CCC(C)(O)CC2)n1` (stereo not drawn) [Example 216, 1-(3-{1-[4-(2-Amino-pyrimidin-5-yl)-phenyl]-1,2-dimethyl-propyl}-[1,2,4]oxadiazol-5-yl)-4-methyl-piperidin-4-ol] it was 34 nM; in that of `CC(C)[C@@](C)(c1ccc(-c2cnc(N)nc2)cc1)c1noc(N2CCC(C)(O)CC2)n1` [Example 228, 1-(3-{(S)-1-[4-(2-Amino-pyrimidin-5-yl)-phenyl]-1,2-dimethyl-propyl}-[1,2,4]oxadiazol-5-yl)-4-methyl-piperidin-4-ol], 550 nM.
For the compound `C[C@](c1ccc(-c2cnc(N)nc2)cc1)(c1noc(N2CCC(O)CC2)n1)C1CC1` [Example 234, 1-(3-{(S)-1-[4-(2-Amino-pyrimidin-5-yl)-phenyl]-1-cyclopropyl-ethyl}-[1,2,4]oxadiazol-5-yl)-piperidin-4-ol], in test [2], the half-inhibitory concentration (IC50) came to 1000 nM.
For `CC(C)C(C)(c1ccc(-c2cnc(N)nc2)cc1)c1noc(N2CCC(O)CC2)n1` (stereo not drawn) [Example 262, 1-(3-{1-[4-(2-Amino-pyrimidin-5-yl)-phenyl]-1,2-dimethyl-propyl}-[1,2,4]oxadiazol-5-yl)-piperidin-4-ol], the IC50 in test [2] was found to be 84 nM.
